{"source": "paper PMC11971462", "about": "“Generation and validation of a novel multitarget small molecule in glioblastoma” (Cell Death & Disease, 2025)", "test_system": "GNS166 cells", "experiment": "Label-free proteomics differential expression", "format": "cell-based, human", "method": "Proteomic studies were performed by the Proteomics Facility of the CIC bioGUNE by label-free relative quantification on nLC MS/MS. […] In both approaches, the top 20 enriched terms were plotted and the pathways were clustered using divisive hierarchical clustering based on pairwise Jaccard distances.", "data": [{"smiles": "C#CCN(Cc1cc2cc(OCCCN3CCCCC3)ccc2n1S(=O)(=O)c1ccccc1)C(=O)CCCCCCC(=O)NO", "note": "[DDI]", "values": [{"measurement": "Direction TENS3_HUMAN", "setting": "protein Q68CZ2", "value": "Down"}, {"measurement": "LogFC TENS3_HUMAN", "setting": "protein Q68CZ2", "value": -3.364}, {"measurement": "LogFC LARP4_HUMAN", "setting": "protein Q71RC2 GN=LARP4", "value": 0.7689}, {"measurement": "LogFC PEG10_HUMAN", "setting": "protein Q86TG7 GN=PEG10", "value": 3.16}, {"measurement": "LogFC SETD3_HUMAN", "setting": "protein Q86TU7 GN=SETD3", "value": 0.5021}, {"measurement": "Direction ACOT1_HUMAN", "setting": "protein Q86TX2", "value": "Down"}, {"measurement": "LogFC ACOT1_HUMAN", "setting": "protein Q86TX2", "value": -1.83}, {"measurement": "LogFC PABP2_HUMAN", "setting": "protein Q86U42 GN=PABPN1", "value": -1.1218}, {"measurement": "Direction PB1_HUMAN", "setting": "protein Q86U86", "value": "Down"}, {"measurement": "LogFC PB1_HUMAN", "setting": "protein Q86U86", "value": -2.078}, {"measurement": "Direction PHLB1_HUMAN", "setting": "protein Q86UU1", "value": "Down"}, {"measurement": "LogFC PHLB1_HUMAN", "setting": "protein Q86UU1", "value": -2.257}, {"measurement": "Direction DTX2_HUMAN", "setting": "protein Q86UW9", "value": "Down"}, {"measurement": "LogFC DTX2_HUMAN", "setting": "protein Q86UW9", "value": -1.305}, {"measurement": "LogFC LUZP1_HUMAN", "setting": "protein Q86V48 GN=LUZP1", "value": 0.5884}, {"measurement": "LogFC THOC4_HUMAN", "setting": "protein Q86V81 GN=ALYREF", "value": -0.9542}, {"measurement": "Direction IQGA3_HUMAN", "setting": "protein Q86VI3", "value": "Down"}, {"measurement": "LogFC IQGA3_HUMAN", "setting": "protein Q86VI3", "value": -2.742}, {"measurement": "Direction MET16_HUMAN", "setting": "protein Q86W50", "value": "Down"}, {"measurement": "LogFC MET16_HUMAN", "setting": "protein Q86W50", "value": -1.7557}, {"measurement": "LogFC CCD25_HUMAN", "setting": "protein Q86WR0 GN=CCDC25", "value": 2.202}, {"measurement": "LogFC NIT1_HUMAN", "setting": "protein Q86X76 GN=NIT1", "value": 0.9607}, {"measurement": "Direction CNDG2_HUMAN", "setting": "protein Q86XI2", "value": "Down"}, {"measurement": "LogFC CNDG2_HUMAN", "setting": "protein Q86XI2", "value": -2.11}, {"measurement": "Direction ANKL2_HUMAN", "setting": "protein Q86XL3", "value": "Down"}, {"measurement": "LogFC ANKL2_HUMAN", "setting": "protein Q86XL3", "value": -0.7885}, {"measurement": "LogFC DDX42_HUMAN", "setting": "protein Q86XP3 GN=DDX42", "value": -0.6019}, {"measurement": "Direction VRK2_HUMAN", "setting": "protein Q86Y07", "value": "Down"}, {"measurement": "LogFC VRK2_HUMAN", "setting": "protein Q86Y07", "value": -1.564}, {"measurement": "LogFC RAB43_HUMAN", "setting": "protein Q86YS6 GN=RAB43", "value": -1.528}, {"measurement": "Direction RFT1_HUMAN", "setting": "protein Q96AA3", "value": "Down"}, {"measurement": "LogFC RFT1_HUMAN", "setting": "protein Q96AA3", "value": -0.9928}, {"measurement": "Direction TTC17_HUMAN", "setting": "protein Q96AE7", "value": "Down"}, {"measurement": "LogFC TTC17_HUMAN", "setting": "protein Q96AE7", "value": -1.296}, {"measurement": "LogFC PBIP1_HUMAN", "setting": "protein Q96AQ6 GN=PBXIP1", "value": 1.536}, {"measurement": "LogFC SARAF_HUMAN", "setting": "protein Q96BY9 GN=SARAF", "value": 2.225}, {"measurement": "LogFC ACSF2_HUMAN", "setting": "protein Q96CM8 GN=ACSF2", "value": 1.4396}, {"measurement": "LogFC GCP3_HUMAN", "setting": "protein Q96CW5 GN=TUBGCP3", "value": -1.184}, {"measurement": "LogFC RMXL1_HUMAN", "setting": "protein Q96E39 GN=RBMXL1", "value": 1.251}, {"measurement": "LogFC SGTB_HUMAN", "setting": "protein Q96EQ0 GN=SGTB", "value": 0.9619}, {"measurement": "Direction WDR34_HUMAN", "setting": "protein Q96EX3", "value": "Down"}, {"measurement": "LogFC WDR34_HUMAN", "setting": "protein Q96EX3", "value": -2.769}, {"measurement": "LogFC DYL2_HUMAN", "setting": "protein Q96FJ2 GN=DYNLL2", "value": 1.408}, {"measurement": "Direction CERS2_HUMAN", "setting": "protein Q96G23", "value": "Down"}, {"measurement": "LogFC CERS2_HUMAN", "setting": "protein Q96G23", "value": -1.352}, {"measurement": "Direction AURKB_HUMAN", "setting": "protein Q96GD4", "value": "Down"}, {"measurement": "LogFC AURKB_HUMAN", "setting": "protein Q96GD4", "value": -0.8936}, {"measurement": "Direction TOE1_HUMAN", "setting": "protein Q96GM8", "value": "Down"}, {"measurement": "LogFC TOE1_HUMAN", "setting": "protein Q96GM8", "value": -1.175}, {"measurement": "Direction ITCH_HUMAN", "setting": "protein Q96J02", "value": "Down"}, {"measurement": "LogFC ITCH_HUMAN", "setting": "protein Q96J02", "value": -0.7634}, {"measurement": "Direction TOPK_HUMAN", "setting": "protein Q96KB5", "value": "Down"}, {"measurement": "LogFC TOPK_HUMAN", "setting": "protein Q96KB5", "value": -2.0632}, {"measurement": "Direction EHMT2_HUMAN", "setting": "protein Q96KQ7", "value": "Down"}, {"measurement": "LogFC EHMT2_HUMAN", "setting": "protein Q96KQ7", "value": -1.8}, {"measurement": "Direction EP400_HUMAN", "setting": "protein Q96L91", "value": "Down"}, {"measurement": "LogFC EP400_HUMAN", "setting": "protein Q96L91", "value": -2.0331}, {"measurement": "Direction TRI47_HUMAN", "setting": "protein Q96LD4", "value": "Down"}, {"measurement": "LogFC TRI47_HUMAN", "setting": "protein Q96LD4", "value": -1.137}, {"measurement": "LogFC FXL18_HUMAN", "setting": "protein Q96ME1 GN=FBXL18", "value": 0.7929}, {"measurement": "LogFC DCBD2_HUMAN", "setting": "protein Q96PD2 GN=DCBLD2", "value": -0.7605}, {"measurement": "LogFC NED4L_HUMAN", "setting": "protein Q96PU5 GN=NEDD4L", "value": 1.365}, {"measurement": "LogFC S38A2_HUMAN", "setting": "protein Q96QD8 GN=SLC38A2", "value": 0.9305}, {"measurement": "Direction MCCA_HUMAN", "setting": "protein Q96RQ3", "value": "Down"}, {"measurement": "LogFC MCCA_HUMAN", "setting": "protein Q96RQ3", "value": -0.7659}, {"measurement": "Direction INT14_HUMAN", "setting": "protein Q96SY0", "value": "Down"}, {"measurement": "LogFC INT14_HUMAN", "setting": "protein Q96SY0", "value": -0.8896}, {"measurement": "Direction RSF1_HUMAN", "setting": "protein Q96T23", "value": "Down"}, {"measurement": "LogFC RSF1_HUMAN", "setting": "protein Q96T23", "value": -2.084}, {"measurement": "Direction UHRF1_HUMAN", "setting": "protein Q96T88", "value": "Down"}, {"measurement": "LogFC UHRF1_HUMAN", "setting": "protein Q96T88", "value": -2.206}, {"measurement": "Direction VIGLN_HUMAN", "setting": "protein Q00341", "value": "Down"}, {"measurement": "LogFC VIGLN_HUMAN", "setting": "protein Q00341", "value": -1.004}, {"measurement": "Direction PAR14_HUMAN", "setting": "protein Q460N5", "value": "Down"}, {"measurement": "LogFC PAR14_HUMAN", "setting": "protein Q460N5", "value": -1.711}, {"measurement": "LogFC CDK5_HUMAN", "setting": "protein Q00535 GN=CDK5", "value": 1.129}, {"measurement": "LogFC M17L2_HUMAN", "setting": "protein Q567V2 GN=MPV17L2", "value": 1.68}, {"measurement": "LogFC PURA_HUMAN", "setting": "protein Q00577 GN=PURA", "value": 0.4477}, {"measurement": "LogFC SFT2C_HUMAN", "setting": "protein Q587I9 GN=SFT2D3", "value": -1.885}, {"measurement": "LogFC ACD11_HUMAN", "setting": "protein Q709F0 GN=ACAD11", "value": -0.7894}, {"measurement": "LogFC CAP1_HUMAN", "setting": "protein Q01518 GN=CAP1", "value": 0.6335}, {"measurement": "Direction OTUD4_HUMAN", "setting": "protein Q01804", "value": "Down"}, {"measurement": "LogFC OTUD4_HUMAN", "setting": "protein Q01804", "value": -1.044}, {"measurement": "Direction BDH_HUMAN", "setting": "protein Q02338", "value": "Down"}, {"measurement": "LogFC BDH_HUMAN", "setting": "protein Q02338", "value": -0.9278}, {"measurement": "LogFC DSC2_HUMAN", "setting": "protein Q02487 GN=DSC2", "value": 2.478}, {"measurement": "LogFC AKA12_HUMAN", "setting": "protein Q02952 GN=AKAP12", "value": 2.896}, {"measurement": "LogFC KIME_HUMAN", "setting": "protein Q03426 GN=MVK", "value": -0.3731}, {"measurement": "Direction ERCC6_HUMAN", "setting": "protein Q03468", "value": "Down"}, {"measurement": "LogFC ERCC6_HUMAN", "setting": "protein Q03468", "value": -0.8508}, {"measurement": "Direction TAP1_HUMAN", "setting": "protein Q03518", "value": "Down"}, {"measurement": "LogFC TAP1_HUMAN", "setting": "protein Q03518", "value": -0.8528}, {"measurement": "Direction TAP2_HUMAN", "setting": "protein Q03519", "value": "Down"}, {"measurement": "LogFC TAP2_HUMAN", "setting": "protein Q03519", "value": -0.8847}, {"measurement": "Direction GLGB_HUMAN", "setting": "protein Q04446", "value": "Down"}, {"measurement": "LogFC GLGB_HUMAN", "setting": "protein Q04446", "value": -0.6914}, {"measurement": "Direction SRS11_HUMAN", "setting": "protein Q05519", "value": "Down"}, {"measurement": "LogFC SRS11_HUMAN", "setting": "protein Q05519", "value": -0.4029}, {"measurement": "Direction FOLC_HUMAN", "setting": "protein Q05932", "value": "Down"}, {"measurement": "LogFC FOLC_HUMAN", "setting": "protein Q05932", "value": -1.856}, {"measurement": "LogFC PUR1_HUMAN", "setting": "protein Q06203 GN=PPAT", "value": 0.9093}, {"measurement": "LogFC GFPT1_HUMAN", "setting": "protein Q06210 GN=GFPT1", "value": -0.4508}, {"measurement": "LogFC PRDX1_HUMAN", "setting": "protein Q06830 GN=PRDX1", "value": 1.081}, {"measurement": "Direction B2CL1_HUMAN", "setting": "protein Q07817", "value": "Down"}, {"measurement": "LogFC B2CL1_HUMAN", "setting": "protein Q07817", "value": -1.289}, {"measurement": "Direction RHG01_HUMAN", "setting": "protein Q07960", "value": "Down"}, {"measurement": "LogFC RHG01_HUMAN", "setting": "protein Q07960", "value": -0.6872}, {"measurement": "Direction AHNK_HUMAN", "setting": "protein Q09666", "value": "Down"}, {"measurement": "LogFC AHNK_HUMAN", "setting": "protein Q09666", "value": -0.5648}, {"measurement": "Direction CPSF1_HUMAN", "setting": "protein Q10570", "value": "Down"}, {"measurement": "LogFC CPSF1_HUMAN", "setting": "protein Q10570", "value": -0.5217}, {"measurement": "LogFC SCRN1_HUMAN", "setting": "protein Q12765 GN=SCRN1", "value": -0.7259}, {"measurement": "Direction CDC20_HUMAN", "setting": "protein Q12834", "value": "Down"}, {"measurement": "LogFC CDC20_HUMAN", "setting": "protein Q12834", "value": -2.397}]}]}
